What was measured:
[1] = target: Adrenergic receptors; alpha-1 A & B (Homo sapiens) (UniProt P35348+P35368); test: Selectivity ratio of pKi for human adrenergic alpha-1a receptor to pKi for human adrenergic alpha-1b receptor; format: protein assay
[2] = target: T1, Alpha-1A adrenergic receptor (Homo sapiens, UniProt P35348); test: Displacement of [3H]prazosin from human adrenergic alpha-1a receptor expressed in CHO cells; format: cell-based
T1 sequence (P35348 whole entry): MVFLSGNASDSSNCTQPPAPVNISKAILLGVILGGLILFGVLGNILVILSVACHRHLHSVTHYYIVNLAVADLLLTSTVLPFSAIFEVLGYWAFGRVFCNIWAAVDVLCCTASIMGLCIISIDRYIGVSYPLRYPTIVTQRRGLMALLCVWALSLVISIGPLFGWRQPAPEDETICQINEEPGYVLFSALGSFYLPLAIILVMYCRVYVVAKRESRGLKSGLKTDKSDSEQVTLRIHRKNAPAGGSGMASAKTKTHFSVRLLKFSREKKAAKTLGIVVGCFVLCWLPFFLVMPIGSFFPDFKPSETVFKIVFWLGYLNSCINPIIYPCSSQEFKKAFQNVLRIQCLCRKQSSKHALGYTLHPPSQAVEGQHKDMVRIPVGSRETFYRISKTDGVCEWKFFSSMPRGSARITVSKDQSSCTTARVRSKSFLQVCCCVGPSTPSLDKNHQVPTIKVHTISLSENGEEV

[3] = target: T2, Alpha-1B adrenergic receptor (Rattus norvegicus) (UniProt P15823); test: (§1) Antagonist activity against adrenergic Alpha-1B receptor in rat spleen assessed as inhibition of phenylephrine-induced response; format: functional, tissue-based
T2 sequence (whole entry): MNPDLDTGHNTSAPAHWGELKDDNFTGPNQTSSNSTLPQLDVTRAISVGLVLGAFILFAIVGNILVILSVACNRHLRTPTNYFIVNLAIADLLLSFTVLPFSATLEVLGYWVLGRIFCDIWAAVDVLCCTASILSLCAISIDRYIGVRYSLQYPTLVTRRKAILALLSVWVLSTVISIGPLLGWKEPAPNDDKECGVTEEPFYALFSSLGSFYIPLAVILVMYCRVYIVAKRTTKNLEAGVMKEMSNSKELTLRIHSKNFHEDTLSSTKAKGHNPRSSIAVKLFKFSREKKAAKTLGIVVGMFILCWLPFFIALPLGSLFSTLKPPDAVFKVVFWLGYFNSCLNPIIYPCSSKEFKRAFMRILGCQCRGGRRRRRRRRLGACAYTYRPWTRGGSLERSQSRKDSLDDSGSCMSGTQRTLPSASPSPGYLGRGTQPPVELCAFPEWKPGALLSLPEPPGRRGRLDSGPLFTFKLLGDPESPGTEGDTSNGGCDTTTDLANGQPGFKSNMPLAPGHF

Rattus norvegicus = species: Rattus norvegicus; test: Selectivity ratio for rat adrenergic Alpha-1D receptor over rat adrenergic Alpha-1B receptor; format: functional
[4] = target: T3, Alpha-1B adrenergic receptor (Homo sapiens, UniProt P35368); test: Displacement of [3H]prazosin from human adrenergic alpha-1b receptor expressed in CHO cells; format: cell-based
T3 sequence (P35368 whole entry): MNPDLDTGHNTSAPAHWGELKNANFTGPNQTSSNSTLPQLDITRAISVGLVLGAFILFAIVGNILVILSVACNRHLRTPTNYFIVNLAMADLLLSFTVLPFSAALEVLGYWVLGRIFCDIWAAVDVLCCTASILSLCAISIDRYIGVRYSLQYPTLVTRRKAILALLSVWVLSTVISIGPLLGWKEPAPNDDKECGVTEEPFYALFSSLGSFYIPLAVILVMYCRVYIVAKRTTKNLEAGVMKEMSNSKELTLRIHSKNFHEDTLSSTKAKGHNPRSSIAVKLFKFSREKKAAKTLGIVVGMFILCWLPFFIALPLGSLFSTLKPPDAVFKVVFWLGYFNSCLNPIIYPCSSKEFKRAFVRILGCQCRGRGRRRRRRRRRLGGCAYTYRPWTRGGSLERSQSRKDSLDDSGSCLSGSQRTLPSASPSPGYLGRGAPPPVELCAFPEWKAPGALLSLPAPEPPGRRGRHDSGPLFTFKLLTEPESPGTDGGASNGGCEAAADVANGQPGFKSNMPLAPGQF

[5] = target: Alpha adrenergic receptor (1a and 1d) (Homo sapiens) (UniProt P35348+P25100); test: Selectivity ratio of pKi for human adrenergic alpha-1a receptor to pKi for human adrenergic alpha1d receptor; format: protein assay
[6] = target: T4, Alpha-1D adrenergic receptor (Rattus norvegicus) (UniProt P23944); test: (§2) Antagonist activity against adrenergic Alpha-1D receptor in rat thoracic aorta assessed as noradrenaline-induced response; format: functional, tissue-based
T4 sequence (whole entry): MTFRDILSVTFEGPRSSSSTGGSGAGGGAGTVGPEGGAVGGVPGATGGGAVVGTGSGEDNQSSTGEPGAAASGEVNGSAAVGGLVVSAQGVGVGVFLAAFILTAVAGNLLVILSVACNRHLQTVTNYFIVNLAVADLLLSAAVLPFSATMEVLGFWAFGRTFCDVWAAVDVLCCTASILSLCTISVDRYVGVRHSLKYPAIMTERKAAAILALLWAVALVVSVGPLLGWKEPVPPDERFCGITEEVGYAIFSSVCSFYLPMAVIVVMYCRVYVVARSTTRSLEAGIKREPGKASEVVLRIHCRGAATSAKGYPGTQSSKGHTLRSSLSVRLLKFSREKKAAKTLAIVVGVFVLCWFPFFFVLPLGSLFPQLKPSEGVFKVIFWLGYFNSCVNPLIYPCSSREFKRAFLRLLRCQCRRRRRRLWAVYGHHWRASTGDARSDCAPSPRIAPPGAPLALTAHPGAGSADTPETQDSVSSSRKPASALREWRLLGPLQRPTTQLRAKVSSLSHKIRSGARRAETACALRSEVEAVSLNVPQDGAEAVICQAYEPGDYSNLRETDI

Homo sapiens = species: Homo sapiens; test: Selectivity ratio of pKi for human adrenergic alpha-1d receptor to pKi for human adrenergic alpha-1b receptor
[7] = target: T5, Alpha-1A adrenergic receptor (Rattus norvegicus) (UniProt P43140); test: (§3) Antagonist activity against adrenergic alpha-1A receptor in rat prostatic vas deferens assessed as inhibition of noradrenaline-induced contraction; format: functional, tissue-based
T5 sequence (whole entry): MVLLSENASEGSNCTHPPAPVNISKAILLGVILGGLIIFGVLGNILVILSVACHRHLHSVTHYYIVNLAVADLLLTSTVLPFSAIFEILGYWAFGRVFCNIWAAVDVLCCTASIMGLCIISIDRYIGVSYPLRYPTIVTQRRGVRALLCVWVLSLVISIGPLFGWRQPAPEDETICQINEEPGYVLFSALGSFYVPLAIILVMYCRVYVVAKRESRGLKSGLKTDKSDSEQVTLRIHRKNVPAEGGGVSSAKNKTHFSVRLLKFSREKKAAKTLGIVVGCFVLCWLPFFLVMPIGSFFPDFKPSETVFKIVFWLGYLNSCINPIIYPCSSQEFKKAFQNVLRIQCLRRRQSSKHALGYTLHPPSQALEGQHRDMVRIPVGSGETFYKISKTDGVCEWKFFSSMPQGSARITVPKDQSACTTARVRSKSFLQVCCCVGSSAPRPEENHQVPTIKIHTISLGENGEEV

[8] = target: T6, Alpha-1D adrenergic receptor (Homo sapiens, UniProt P25100); test: Displacement of [3H]prazosin from human adrenergic alpha-1d receptor expressed in CHO cells; format: cell-based
T6 sequence (P25100 whole entry): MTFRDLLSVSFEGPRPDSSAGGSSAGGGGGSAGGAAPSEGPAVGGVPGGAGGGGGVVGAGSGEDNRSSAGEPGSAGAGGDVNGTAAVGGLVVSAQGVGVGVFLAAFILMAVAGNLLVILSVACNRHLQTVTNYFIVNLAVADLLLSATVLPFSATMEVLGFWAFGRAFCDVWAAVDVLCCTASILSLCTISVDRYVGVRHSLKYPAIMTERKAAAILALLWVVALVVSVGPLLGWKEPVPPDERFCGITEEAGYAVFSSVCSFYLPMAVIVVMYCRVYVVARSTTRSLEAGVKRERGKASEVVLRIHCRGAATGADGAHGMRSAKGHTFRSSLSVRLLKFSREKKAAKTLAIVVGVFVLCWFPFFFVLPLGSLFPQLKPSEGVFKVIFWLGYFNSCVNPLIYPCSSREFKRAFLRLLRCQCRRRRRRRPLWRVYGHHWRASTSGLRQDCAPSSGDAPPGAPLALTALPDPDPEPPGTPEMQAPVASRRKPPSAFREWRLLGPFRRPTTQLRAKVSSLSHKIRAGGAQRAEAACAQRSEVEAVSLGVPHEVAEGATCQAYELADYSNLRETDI

[9] = target: Alpha adrenergic receptor 1A and 1B (Rattus norvegicus) (UniProt P15823+P43140); test: Selectivity ratio for rat adrenergic alpha-1A receptor over rat adrenergic Alpha-1B receptor; format: functional
[10] = target: Alpha adrenergic receptor 1A and 1D (Rattus norvegicus) (UniProt P23944+P43140); test: Selectivity ratio for rat adrenergic alpha-1A receptor over rat adrenergic Alpha-1D receptor; format: functional
[11] = target: T7, Alpha-1D adrenergic receptor (Rattus norvegicus, UniProt P23944); test: as §2; format: functional, tissue-based; details: read-out: pA2 (converted)
T7 sequence (P23944 whole entry): T4 sequence (whole entry)

[12] = target: T8, Alpha-1A adrenergic receptor (Rattus norvegicus, UniProt P43140); test: as §3; format: functional, tissue-based; details: read-out: pA2 (converted)
T8 sequence (P43140 whole entry): T5 sequence (whole entry)

[13] = target: T9, Alpha-1B adrenergic receptor (Rattus norvegicus, UniProt P15823); test: as §1; format: functional, tissue-based; details: read-out: pA2 (converted)
T9 sequence (P15823 whole entry): T2 sequence (whole entry)

Selectivity ratio [1]	Ki [2] [nM]	pKb [3]	Selectivity ratio (Rattus norvegicus)	Ki [4] [nM]	Selectivity ratio [5]	pKb [6]	Selectivity ratio (Homo sapiens)	pKb [7]	Ki [8] [nM]	Selectivity ratio [9]	Selectivity ratio [10]	Kb [11] [nM]	Kb [12] [nM]	Kb [13] [nM]	Compound
3	10.5	8.05	5	3.16	7	7.33	0.5	7.06	1.51	10	2	–	–	–	COc1cc2nc(N3CCN(C(=O)c4ccc[nH]4)[C@H]4CCCC[C@H]43)nc(N)c2cc1OC
8	49	8.64	33	5.89	2	7.12	5	7.04	26.9	40	1	–	–	–	COc1cc2nc(N3CCN(C(=O)c4ccccn4)[C@H]4CCCC[C@H]43)nc(N)c2cc1OC
32	27.5	8.5	28	0.871	8	–	4	–	3.63	45	2	89.1	141	–	COc1ccc(C(=O)N2CCN(c3nc(N)c4cc(OC)c(OC)cc4n3)[C@@H]3CCCC[C@@H]32)o1
11	3.47	8.5	19	0.309	2	–	5	7.53	1.55	9	0.5	58.9	–	–	COc1cc2nc(N3CCN(C(=O)c4ccc(Br)o4)[C@H]4CCCC[C@H]43)nc(N)c2cc1OC
18	4.27	8.78	21	0.24	2	–	10	7.44	2.34	22	1	35.5	–	–	COc1cc2nc(N3CCN(C(=O)c4cccs4)[C@H]4CCCC[C@H]43)nc(N)c2cc1OC
19	25.7	8.13	29	1.38	4	–	5	7.05	7.41	12	0.4	214	–	–	COc1cc2nc(N3CCN(C(=O)c4ccc(C(C)=O)o4)[C@H]4CCCC[C@H]43)nc(N)c2cc1OC
–	12.3	8.86	–	0.135	–	–	–	–	3.24	–	–	–	17	–	COc1cc2nc(N3CCN(C(=O)c4ccco4)[C@H]4CCCC[C@H]43)nc(N)c2cc1OC [CYCLAZOSIN]
8.5	4.17	8.83	12	0.49	1	7.76	7	–	3.24	21	2	–	30.9	–	COc1cc2nc(N3CCN(C(=O)c4ccccc4)[C@H]4CCCC[C@H]43)nc(N)c2cc1OC
27	23.4	–	41	0.871	5	–	6	–	4.79	148	4	91.2	331	2.24	COc1cc2nc(N3CCN(C(=O)c4ccc(C)o4)[C@H]4CCCC[C@H]43)nc(N)c2cc1OC
